# Data published in the supplement of paper PMC3974653.
# Structures can show the parent of a compound that is named as a salt.
# System: MTT (mouse pheochromocytoma)
# Test: IC50 of cell viability (ATP content)
# Conditions: (24 or 48 h)
# In short: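 MTT mouse pheochromocytoma cells were seeded into white 1536-well plates at 5 µl per well from a 200,000 cells/ml suspension in DMEM with 5% FBS and 1% horse serum, then cultured overnight at 37°C, 5% CO2. A pintool added 23 nl of library compound in DMSO at 8 concentrations (final 0.5 nM to 46 µM) for 24 or 48 hrs, and CellTiter-Glo ATP luminescence was read after 15 minutes. Signals were scaled so that positive-control wells equalled 100% and DMSO wells 0%. IC50 values were derived by fitting a four-parameter logistic curve.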
row,SMILES,IC50 of cell viability [µM]
1,[Na+].[Na+].CC1CC2C3CCC/4=C/C(=O)/C=C\[C@@]4(C)[C@]3(F)C(O)C[C@]2(C)[C@]1(O)C(=O)CO[P]([O-])([O-])=O (stereo partly specified) [DEXAMETHASONE SODIUM PHOSPHATE],> 46
2,CCCCC(=O)O[C@]1(C(=O)CO)[C@H](C)C[C@H]2[C@@H]3CCC4=CC(=O)C=C[C@]4(C)[C@@]3(F)[C@@H](O)C[C@@]21C [DEXAMETHASONE VALERATE],> 46
3,CCNC(C)Cc1cccc(C(F)(F)F)c1 (stereo unspecified) [DEXFENFLURAMINE],> 46
4,CC(C)NCC(O)c1ccc(N[S+](C)(=O)[O-])cc1.Cl (stereo unspecified) [DEXSOTALOLUM],> 46
5,CC(=O)Oc1cccc2c1C(=O)c1c(OC(C)=O)cc(C(=O)O)cc1C2=O [DIACERIN],> 46
6,C=CCSSSCC=C [DIALLYL TRISULFIDE],> 46
7,C[N@H+]1CC[C@@]23C4OC5=C2C(=CC=C5OC(C)=O)C[C@H]1[C@@H]3\C=C/[C@@H]4OC(C)=O (stereo partly specified) [DIAMORPHINE HYDROCHLORIDE],> 46
8,COc1ccc(Cc2cnc(N)nc2N)cc1OC [DIAVERIDINUM],> 46
9,C\C1=N\C2=C(C=C(Cl)C=C2)[S+]([O-])(=O)N1 [DIAZOXIDE],> 46
10,NCC1CCC(N)C(O[C@@H]2C(O)[C@H](O[C@H]3OC(CO)C(O)C(N)C3O)[C@@H](N)C[C@H]2N)O1.O=[S+]([O-])(O)O (stereo partly specified) [DIBEKACIN],> 46
11,c1ccc2c(c1)sc1ccccc12 [DIBENZOTHIOPHENE],> 46
12,CC(C)(C)c1ccc2c(S(=O)(=O)[O-])c(C(C)(C)C)ccc2c1 [DIBUNATE SODIUM],> 46
13,CCCCCCCCCCCC(=O)[O][Sn]([CH2]CCC)([CH2]CCC)[O]C(=O)CCCCCCCCCCC [DIBUTYLTIN DILAURATE],> 46
14,Cc1ccc2c(c1)[C@@H]1CN(C)CC[C@H]1N2 [DICARBINUM],> 46
15,OCc1ccc(Cl)cc1Cl [DICHLOROBENZYL ALCOHOL],> 46
16,ClC1=CC=C(C=C1)C(C#N)C2=C(Cl)C=C(C=C2Cl)N3\N=C/C(=O)NC3=O (stereo unspecified) [DICLAZURIL],> 46
17,O=C([O-])Cc1ccccc1Nc1c(Cl)cccc1Cl.[Na+] [DICLOFENAC SODIUM],> 46
18,COc1ccc(/C=C/C(=O)O)cc1 [DIETHANOLAMINE METHOXYCINNAMATE],> 46
19,CCN(CC)C(C)C(=O)c1ccccc1 (stereo unspecified) [DIETHYLPROPION HYDROCHLORIDE],> 46
20,CC/C(=C(/CC)c1ccc(OP(=O)(O)O)cc1)c1ccc(OP(=O)(O)O)cc1 [DIETHYLSTILBESTROL DIPHOSPHATE],> 46
21,CCN(CC)C(=O)c1cccc(C)c1 [DIETHYLTOLUAMIDE],> 46

row,SMILES,IC50 of cell viability [µM]
1,CC(C(O)c1ccccc1)N(C)CCOC(c1ccccc1)c1ccccc1 (stereo unspecified) [DIFETEROL HYDROCHLORIDE],> 46
2,CN1CCN(c2cc3c(cc2F)c(=O)c(C(=O)O)cn3-c2ccc(F)cc2)CC1 [DIFLOXACIN HYDROCHLORIDE],> 46
3,CCCCC(=O)OCC(=O)[C@H]1[C@H](C)C[C@@H]2[C@@H]3C[C@@H](F)C4=CC(=O)C=C[C@]4(C)[C@@]3(F)[C@@H](O)C[C@@]21C [DIFLUCORTOLONE VALERATE],> 46
4,CCCC(=O)O[C@@]1(CC[C@H]2C3C[C@H](F)\C4=C\C(=O)\C=C/C4(C)[C@@]3(F)[C@@H](O)CC12C)C(=O)COC(C)=O (stereo partly specified) [DIFLUPREDNATE],> 46
5,NNc1nnc(NN)c2ccccc12 [DIHYDRALAZINUM],> 46
6,CN1C[C@H](C(=O)N[C@]2(C)O[C@@]3(O)[C@@H]4CCCN4C(=O)[C@H](Cc4ccccc4)N3C2=O)C[C@@H]2c3cccc4[nH]cc(c34)C[C@H]21 [DIHYDROERGOTAMINE],> 46
7,CNC1C(OC2C(O[C@@H]3C(O)C(O)[C@@H](NC(=N)N)C(O)C3NC(=N)N)OC(C)[C@@]2(O)CO)OC(CO)C(O)C1O.O=[S+]([O-])(O)O (stereo partly specified) [DIHYDROSTREPTOMYCIN SULFATE],> 46
8,CC1CCC(O)C/C1=C\C=C1/CCCC2(C)C1CCC2C(C)/C=C/C(C)C(C)C (stereo unspecified) [DIHYDROTACHYSTEROL],> 46
9,COc1cc(C(=O)OCCCN2CCCN(CCCOC(=O)c3cc(OC)c(OC)c(OC)c3)CC2)cc(OC)c1OC [DILAZEP],> 46
10,COc1ccc([C@@H]2Sc3ccccc3N(CCN(C)C)C(=O)[C@@H]2OC(C)=O)cc1 [DILTIAZEM],> 46
11,CCN(CC)CCOc1ccc2nc(N(C)C)sc2c1 [DIMAZOLE DIHYDROCHLORIDE],> 46
12,COc1ccc2c(=O)c(C)c(-c3ccccc3)oc2c1CN(C)C [DIMEFLINE HYDROCHLORIDE],> 46
13,CC(Cc1ccccc1)N(C)C (stereo unspecified) [DIMETAMFETAMINUM],> 46
14,CC1(C)OC(=O)NC1=O [DIMETHADIONE],> 46
15,CCCCCCCCCCCCCC(=O)OCC(COP(=O)([O-])OCC[N+](C)(C)C)OC(=O)CCCCCCCCCCCCC (stereo unspecified) [DIMYRISTOYL LECITHIN],> 46
16,Cc1c(C(N)=O)cc([N+](=O)[O-])cc1[N+](=O)[O-] [DINITOLMIDE],> 46
17,CCCCC[C@H](O)/C=C/[C@H]1[C@H](O)CC(=O)[C@@H]1C/C=C\CCCC(=O)O [DINOPROSTONE],> 46
18,COC1=CC=C(C=C1O)C/2=C/C(=O)C3=C(O)C=C(O[C@H]4OC(COC5OC(C)C(O)C(O)[C@H]5O)C(O)C(O)C4O)C=C3O2 (stereo partly specified) [DIOSMIN],> 46
19,CN(C)CCOC(c1ccccc1)c1ccccc1 [DIPHENHYDRAMINE],> 46
20,CCOC(=O)C1(c2ccccc2)CCN(CCC(C#N)(c2ccccc2)c2ccccc2)CC1 [DIPHENOXYLATE HYDROCHLORIDE],> 46
21,c1ccc(-c2nc[nH]c2-c2ccccc2)cc1 [DIPHENYLIMIDAZOLE],> 46

row,SMILES,IC50 of cell viability [µM]
1,C[N+]1(CC2COC(c3ccccc3)(c3ccccc3)O2)CCCCC1 (stereo unspecified) [DIPHENYLPIPERIDINOMETHYLDIOXOLAN IODIDE (Anacolin)],> 46
2,CC[N+](CC)(CC)CCOC(=O)C(C1CCCC1)C1CCCC1 [DIPONIUM BROMIDE],> 46
3,OCCN(CCO)c1nc(N2CCCCC2)c2nc(N(CCO)CCO)nc(N3CCCCC3)c2n1 [DIPYRIDAMOLE],> 46
4,CC(=O)Oc1cccc(C(=O)O)c1OC(C)=O [DIPYROCETYL],> 46
5,CC[C@H]1OC(=O)[C@H](C)[C@@H](O[C@H]2C[C@@](C)(OC)[C@@H](O)[C@H](C)O2)[C@H](C)[C@@H](O[C@@H]2O[C@H](C)C[C@H](N(C)C)[C@H]2O)[C@](C)(O)C[C@@H](C)[C@@H]2N[C@@H](COCCOC)O[C@H]([C@H]2C)[C@]1(C)O [DIRITHROMYCIN],> 46
6,O=[N+]([O-])c1cc(I)c(O)c(I)c1 [DISOPHENOL SODIUM],> 46
7,Cn1cc(NC(=O)c2cc(NC(=O)c3cc(NC=O)cn3C)cn2C)cc1C(=O)NCCC(=N)N [DISTAMYCIN A],> 46
8,CCN(CC)C(=S)S [DITIOCARBUM NATRICUM],> 46
9,CN(C)C(=O)Nc1ccc(Cl)c(Cl)c1 [DIURON],> 46
10,CC(CCc1ccc(O)cc1)NCCc1ccc(O)c(O)c1 (stereo unspecified) [DOBUTAMINE],> 46
11,CC(=O)O[C@@]12CO[C@@H]1C[C@H](O)[C@@]1(C)C(=O)[C@H](O)C3=C(C)[C@@H](OC(=O)C(O)[C@@H](NC(=O)OC(C)(C)C)c4ccccc4)C[C@@](O)([C@@H](OC(=O)c4ccccc4)[C@H]21)C3(C)C (stereo partly specified) [DOCETAXEL],> 46
12,CC/C=C\C/C=C\C/C=C\C/C=C\C/C=C\C/C=C\CCC(=O)O [DOCOSAHEXAENOIC ACID],> 46
13,CCCCCCCCCCCCCCCCCCCCCCO [DOCOSANOL],> 46
14,FC(F)(F)C(F)(F)C(F)(F)C(F)(F)C(F)(F)F [DODECAFLUOROPENTANE],> 46
15,C[S+](=O)([O-])O.O.O=C(O[C@@H]1C[C@@H]2C[C@@H]3C[C@H](C1)N2CC3=O)c1c[nH]c2ccccc12 [DOLASETRON MESYLATE],> 46
16,COc1cc2c(cc1OC)C(=O)C(CC1CCN(Cc3ccccc3)CC1)C2 (stereo unspecified) [DONEPEZIL HYDROCHLORIDE],> 46
17,NCCc1ccc(O)c(O)c1 [DOPAMINE],> 46
18,Cc1ccc(-n2nc(C(C)(C)C)cc2NC(=O)Nc2ccc(OCCN3CCOCC3)c3ccccc23)cc1 [DORAMAPIMOD],> 46
19,O=[N+]([O-])c1nccn1CO[C@@H](CO)[C@H](O)CO [DORANIDAZOLE],> 46
